This is an account of results in patent publication US20060063736A1, “Compositions and methods for inhibiting mucin-type O-linked glycosylation” (priority 2004, published 2006).

Test [1] concerns the target T1, β1-4galactosyltransferase (β1-4GalT) (Bos taurus, UniProt P08037).
T1 construct: purchased Calbiochem
T1 sequence (P08037 1-402): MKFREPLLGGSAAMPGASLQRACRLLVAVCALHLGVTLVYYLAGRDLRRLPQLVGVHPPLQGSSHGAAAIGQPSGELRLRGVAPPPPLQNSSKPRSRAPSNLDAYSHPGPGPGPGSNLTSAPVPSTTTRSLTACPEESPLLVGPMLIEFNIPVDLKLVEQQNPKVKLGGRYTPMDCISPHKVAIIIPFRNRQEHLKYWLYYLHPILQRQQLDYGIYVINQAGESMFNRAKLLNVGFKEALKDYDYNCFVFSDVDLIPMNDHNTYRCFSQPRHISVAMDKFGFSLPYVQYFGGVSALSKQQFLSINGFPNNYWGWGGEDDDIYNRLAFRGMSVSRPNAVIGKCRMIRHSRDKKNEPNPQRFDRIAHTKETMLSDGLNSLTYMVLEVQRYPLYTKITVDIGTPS
Kind of test: Continuous assay for β1-4GalT activity. The test is classed as biochemical, bovine. The following applies: for inhibitory activity against β1-4GalT: highest concentration tested (500 μM). The procedure:
The enzymatic reactions contained the following components in a final volume of 100 μL: 20 mM MnCl2, 100 mM sodium cacodylate, pH 6.5, 5 U of pyruvate kinase, 5 U of lactate dehydrogenase, 2 mM PEP, 0.2 mM NADH with 0.4 mU of β1-4GalT, 1 mM βOMeGlcNAc, 25 μM UDP-Gal or 1.0 mU of α1-3GalT, 1 mM LacNAc, 100 μM UDP-Gal and various concentrations of 1-68A or 2-68A in 2.5% DMSO. The reaction mixtures were incubated at 37° C. for 10 min before the reaction was initiated by the addition of UDP-Gal. The change in absorbance was monitored over 20 min at 340 nm.
To determine the selectivity of the compounds among the broader family of UDP-sugar utilizing enzymes, 1-68A and 2-68A were tested against bovine β1-4galactosyltransferase (β1-4GalT) and porcine α1-3galactosyltransferase (α1-3GalT), using a previously reported continuous colorimetric assay. Fitzgerald et al. (1970) Anal. Biochem. 36:43-61. Neither compound was active against β1-4GalT or α1-3GalT at the highest concentration tested (500 μM) (Entries 9 and 10, Table 1).

For a further test, the target named is T2, mppGalNAcT-4 (Mus musculus, UniProt O08832).
T2 construct: plasmids encoding truncated secreted ppGalNAcTs-1 to −5, -7, -10 and -11; made in house; host or cells: COS-7
T2 sequence (O08832 36-578 limits assumed): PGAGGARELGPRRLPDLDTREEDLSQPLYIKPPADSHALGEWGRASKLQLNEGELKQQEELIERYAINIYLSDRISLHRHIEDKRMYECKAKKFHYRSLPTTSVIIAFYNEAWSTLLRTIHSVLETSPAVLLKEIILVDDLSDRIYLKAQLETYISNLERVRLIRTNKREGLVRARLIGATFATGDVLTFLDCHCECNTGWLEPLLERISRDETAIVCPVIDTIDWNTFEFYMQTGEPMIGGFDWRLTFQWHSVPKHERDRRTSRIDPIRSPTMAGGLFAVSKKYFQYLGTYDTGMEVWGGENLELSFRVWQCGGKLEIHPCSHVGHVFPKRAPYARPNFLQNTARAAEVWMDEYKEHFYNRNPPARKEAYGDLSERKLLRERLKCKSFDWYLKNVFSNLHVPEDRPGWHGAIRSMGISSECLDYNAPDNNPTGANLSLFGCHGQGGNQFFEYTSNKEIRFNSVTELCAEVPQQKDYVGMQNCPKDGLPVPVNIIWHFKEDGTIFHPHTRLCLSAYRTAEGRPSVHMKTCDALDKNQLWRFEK
Kind of test: ELLA for ppGalNAcTs, mppGalNAcT-4. The following applies: 20 μM UDP-GalNAc, 50 μM EA2 peptide 4. The format is biochemical, murine. Here is the method: COS-7 cells were transiently transfected with plasmids encoding truncated secreted ppGalNAcTs-1 to −5, -7, -10 and -11 as previously described. Hagen et al. (1997) J. Biol. Chem. 272:13843-13848. The crude conditioned medium was used as the enzyme source.
Standard reaction conditions for ppGalNAcT assays were as follows. The reaction mixture contained the following components in a final volume of 25 μL: 10 mM MnCl2, 40 mM sodium cacodylate, 40 mM β-mercaptoethanol, 0.1% Triton X-100, pH 6.5, 5 μL of conditioned media, and various concentrations of EA2 peptide 4, UDP-GalNAc and inhibitor. All uridine-based compounds were dissolved in dimethyl sulfoxide (DMSO). […] Reaction rates were linear over the period monitored (20-30 min).
96-Well NeutrAvidin-coated plates were prewashed 3 times with 200 μL of wash buffer (25 mM Tris, 150 mM NaCl, 0.1% bovine serum albumin (BSA) (w/v), and 0.05% Tween (v/v), pH 7.2). […] After 3 washes with 200 μL of PBS, bound HPA-HRP was quantified by the addition of 100 μL of TMB peroxide solution. […] HRP activity was terminated by the addition of 50 μL of 2 N H2SO4 and the resulting solution was analyzed at 450 nm using a UV/Vis microtiter plate reader. The amount of product generated by the ppGalNAcT was extrapolated from absorbance values using an equation fit to the standard curve derived from Origin 6.1 software.

A value given as a limit tells only on which side of the number the result lay.

With `O=c1ccn([C@@H]2O[C@H](CON=Cc3ccc(O)c(O)c3O)[C@@H](O)[C@H]2O)c(=O)[nH]1` [1-68A], in test [1], the IC50 is > 500 µM and the “inhibitory activity against β1-4GalT” value was “lack of inhibitory activity”. Further, at mppGalNAcT-4, the IC50 is 30 ± 5 µM.

For `O=C(CON=Cc1ccc(O)c(O)c1O)NC[C@H]1O[C@@H](n2ccc(=O)[nH]c2=O)[C@H](O)[C@@H]1O` [2-68A], in test [1], the half-inhibitory concentration (IC50) is > 500 µM and the “inhibitory activity against β1-4GalT” value is “lack of inhibitory activity”. Further, at mppGalNAcT-4, 20 ± 5 µM corresponded to half-maximal inhibition (IC50).
